Like-named read-outs stand apart in the source and are kept apart here.
Target: T1, human GluN1/GluN2B NMDA receptors (Homo sapiens, UniProt Q13224)
T1 construct: expressed in transfected cells
Assay: Cell-based calcium flux (FLIPR) assay on cloned human NR1/NR2B ion channels expressed in mammalian cells (standard and HTS buffer variants);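 also: stable Tet-On inducible cell line, Ca2+ influx triggered by glutamate at about EC40 plus 10 µM glycine, fluorescent dye read-out over 5 min, normalized to control wells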

[1] = standard assay buffer (0.5 mM MgCl2 dye loading; 137 mM NaCl, 4 mM KCl assay buffer), human GluN1/GluN2B cells, read-out: NR2B IC50 (μM) standard assay
[2] = standard assay buffer (0.5 mM MgCl2 in dye loading buffer; 137 mM NaCl, 4 mM KCl in assay buffer), human GluN1/GluN2B, read-out: NR2B IC50 (μM) standard assay
[3] = HTS assay buffer (1.5 mM MgCl2 in dye loading buffer; 150 mM NaCl, 3 mM KCl in assay buffer), human GluN1/GluN2B, read-out: NR2B IC50 (μM) HTS assay

T1 sequence (Q13224 27-1484, other chains not shown): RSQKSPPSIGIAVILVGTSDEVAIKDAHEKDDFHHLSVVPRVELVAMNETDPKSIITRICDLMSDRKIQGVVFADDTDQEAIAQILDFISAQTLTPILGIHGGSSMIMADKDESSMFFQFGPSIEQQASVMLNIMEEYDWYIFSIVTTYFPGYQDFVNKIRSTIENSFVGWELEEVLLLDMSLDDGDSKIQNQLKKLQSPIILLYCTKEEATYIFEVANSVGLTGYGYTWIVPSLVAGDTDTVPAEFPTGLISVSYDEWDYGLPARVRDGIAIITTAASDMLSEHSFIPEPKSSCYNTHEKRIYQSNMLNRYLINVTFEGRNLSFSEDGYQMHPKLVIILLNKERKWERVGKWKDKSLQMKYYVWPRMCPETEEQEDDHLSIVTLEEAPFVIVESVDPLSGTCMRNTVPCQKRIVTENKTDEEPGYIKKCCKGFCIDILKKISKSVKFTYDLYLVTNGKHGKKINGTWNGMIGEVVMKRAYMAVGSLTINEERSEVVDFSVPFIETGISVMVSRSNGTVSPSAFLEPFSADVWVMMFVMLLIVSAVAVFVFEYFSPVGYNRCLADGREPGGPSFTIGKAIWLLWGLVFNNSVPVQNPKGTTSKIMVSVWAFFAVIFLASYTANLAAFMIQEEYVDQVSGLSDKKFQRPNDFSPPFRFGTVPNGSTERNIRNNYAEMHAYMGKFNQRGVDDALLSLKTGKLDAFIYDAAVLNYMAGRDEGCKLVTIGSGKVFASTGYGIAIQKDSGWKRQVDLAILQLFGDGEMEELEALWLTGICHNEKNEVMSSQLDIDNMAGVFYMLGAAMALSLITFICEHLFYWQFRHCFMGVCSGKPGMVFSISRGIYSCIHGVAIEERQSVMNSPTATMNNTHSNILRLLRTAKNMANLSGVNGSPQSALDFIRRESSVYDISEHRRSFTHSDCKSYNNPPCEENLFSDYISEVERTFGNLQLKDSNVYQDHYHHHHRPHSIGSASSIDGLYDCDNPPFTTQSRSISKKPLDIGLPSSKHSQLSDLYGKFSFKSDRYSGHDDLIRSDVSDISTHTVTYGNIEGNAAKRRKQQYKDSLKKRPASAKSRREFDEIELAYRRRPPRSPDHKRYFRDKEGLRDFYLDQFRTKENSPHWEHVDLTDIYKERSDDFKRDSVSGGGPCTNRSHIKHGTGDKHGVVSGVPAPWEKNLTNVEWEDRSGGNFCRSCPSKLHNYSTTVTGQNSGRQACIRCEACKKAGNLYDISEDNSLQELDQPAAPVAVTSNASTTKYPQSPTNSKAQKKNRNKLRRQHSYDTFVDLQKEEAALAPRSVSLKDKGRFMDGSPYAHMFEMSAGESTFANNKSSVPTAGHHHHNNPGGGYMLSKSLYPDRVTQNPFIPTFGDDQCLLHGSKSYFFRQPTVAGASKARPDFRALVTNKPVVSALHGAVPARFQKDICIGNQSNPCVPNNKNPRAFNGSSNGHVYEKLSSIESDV

Row | Compound | IC50 [1] [µM] | IC50 [2] [µM] | also measured
1 | Cc1cc(-c2cnc3c(c2)n(Cc2ccccn2)c(=O)n3C)ccc1F [Example 6, 6-(4-Fluoro-3-methyl-phenyl)-3-methyl-1-(2-pyridylmethyl)imidazo[4,5-b]pyridin-2-one] | 0.048 |  | 
2 | Cc1cccc(-c2cnc3[nH]c(=O)n(CC(=O)N4CC(F)(F)C4)c3c2)c1 [Example 580, 1-[2-(3,3-Difluoroazetidin-1-yl)-2-oxo-ethyl]-6-(m-tolyl)-3H-imidazo[4,5-b]pyridin-2-one] |  | 0.026 | 
3 | Cc1c(-c2cnc3[nH]c(=O)n(CCN4CC(F)C4)c3c2)cccc1C(F)(F)F [Example 181, 1-[2-(3-Fluoroazetidin-1-yl)ethyl]-6-[2-methyl-3-(trifluoromethyl)phenyl]-3H-imidazo[4,5-b]pyridin-2-one] | 9.35 |  | 
4 | Cn1c(=O)n(CC(=O)N2CC(F)C2)c2cc(-c3ccc(CO)s3)cnc21 [Example 90, 1-[2-(3-Fluoroazetidin-1-yl)-2-oxo-ethyl]-6-[5-(hydroxymethyl)-2-thienyl]-3-methyl-imidazo[4,5-b]pyridin-2-one] | 0.915 |  | 
5 | Cc1ccc(-c2cnc3c(c2)n(Cc2cnn(C)c2)c(=O)n3C)s1 [Example 555, 3-Methyl-1-[(1-methylpyrazol-4-yl)methyl]-6-(5-methyl-2-thienyl)imidazo[4,5-b]pyridin-2-one] |  | 1.31 | 
6 | Cc1cccc(-c2cnc3c(c2)n(Cc2cncc(Cl)c2)c(=O)n3C)c1 [Example 374, 1-[(5-Chloro-3-pyridyl)methyl]-3-methyl-6-(m-tolyl)imidazo[4,5-b]pyridin-2-one] |  | 0.416 | 
7 | Cc1cc(-c2cnc3c(c2)n(Cc2ccncc2)c(=O)n3C)ccc1F [Example 46, 6-(4-Fluoro-3-methyl-phenyl)-3-methyl-1-(4-pyridylmethyl)imidazo[4,5-b]pyridin-2-one] | 0.6 |  | 
8 | COc1ccc(-c2cnc3[nH]c(=O)n(CC4CC4)c3c2)cc1 [Example 471, 1-(Cyclopropylmethyl)-6-(4-methoxyphenyl)-3H-imidazo[4,5-b]pyridin-2-one] |  | 1.8 | 
9 | Cn1c(=O)n(CC(=O)N2CC(F)C2)c2cc(-c3ccc(C(F)(F)F)s3)cnc21 [Example 327, 1-[2-(3-Fluoroazetidin-1-yl)-2-oxo-ethyl]-3-methyl-6-[5-(trifluoromethyl)-2-thienyl]imidazo[4,5-b]pyridin-2-one] |  | 0.071 | 
10 | Cn1c(=O)n(Cc2cnccn2)c2cc(-c3ccc(F)c(F)c3)cnc21 [Example 63, 6-(3,4-Difluorophenyl)-3-methyl-1-(pyrazin-2-ylmethyl)imidazo[4,5-b]pyridin-2-one] | 2.3 |  | 
11 | Cn1c(=O)n(Cc2cnccn2)c2cc(-c3cccc(C(F)(F)F)c3)cnc21 [Example 249, 3-Methyl-1-(pyrazin-2-ylmethyl)-6-[3-(trifluoromethyl)phenyl]imidazo[4,5-b]pyridin-2-one] | 0.253 |  | 
12 | CNC(=O)Cn1c(=O)[nH]c2ncc(-c3ccc(F)cc3C)cc21 [Example 437, 2-[6-(4-Fluoro-2-methyl-phenyl)-2-oxo-3H-imidazo[4,5-b]pyridin-1-yl]-N-methyl-acetamide] |  | 0.219 | 
13 | Cc1cncc(Cn2c(=O)[nH]c3ncc(-c4cccc(Cl)c4)cc32)c1 [Example 273, 6-(3-Chlorophenyl)-1-[(5-methyl-3-pyridyl)methyl]-3H-imidazo[4,5-b]pyridin-2-one] | 0.096 |  | 
14 | COc1cccc(-c2cnc3[nH]c(=O)n(Cc4ccccc4C#N)c3c2)c1 [Example 485, 2-[[6-(3-Methoxyphenyl)-2-oxo-3H-imidazo[4,5-b]pyridin-1-yl]methyl]benzonitrile] |  | 0.031 | 
15 | O=C(Cn1c(=O)[nH]c2ncc(-c3ccc(C(F)(F)F)s3)cc21)N1CCC1 [Example 323, 1-[2-(azetidin-1-yl)-2-oxo-ethyl]-6-[5-(trifluoromethyl)-2-thienyl]-3H-imidazo[4,5-b]pyridin-2-one] |  | 0.041 | 
16 | COc1cc(F)ccc1-c1cnc2[nH]c(=O)n(Cc3ccc(F)cc3)c2c1 [Example 501, 6-(4-Fluoro-2-methoxy-phenyl)-1-[(4-fluorophenyl)methyl]-3H-imidazo[4,5-b]pyridin-2-one] |  |  | IC50 [3]: 0.79 µM
17 | COc1cccc(F)c1-c1cnc2[nH]c(=O)n(Cc3ccccc3C#N)c2c1 [Example 481, 2-[[6-(2-Fluoro-6-methoxy-phenyl)-2-oxo-3H-imidazo[4,5-b]pyridin-1-yl]methyl]benzonitrile] |  | 2.25 | 
18 | Cn1c(=O)n(CC(=O)N2CCC2)c2cc(-c3ccc(C(F)(F)C(F)(F)F)s3)cnc21 [Example 111, 1-[2-(Azetidin-1-yl)-2-oxo-ethyl]-3-methyl-6-[5-(1,1,2,2,2-pentafluoroethyl)-2-thienyl]imidazo[4,5-b]pyridin-2-one] | 0.037 |  | 
19 | Cn1c(=O)n(Cc2cncnc2)c2cc(-c3ccc(F)c(F)c3)cnc21 [Example 60, 6-(3,4-Difluorophenyl)-3-methyl-1-(pyrimidin-5-ylmethyl)imidazo[4,5-b]pyridin-2-one] | 0.45 |  | 

Row | Compound | IC50 [1] [µM] | IC50 [2] [µM] | also measured
20 | Cn1c(=O)n(Cc2cccnn2)c2cc(-c3ccc(F)c(C(F)F)c3)cnc21 [Example 541, 6-[3-(Difluoromethyl)-4-fluoro-phenyl]-3-methyl-1-(pyridazin-3-ylmethyl)imidazo[4,5-b]pyridin-2-one] |  | 0.022 | 
21 | O=C(Cn1c(=O)[nH]c2ncc(-c3cccc(C(F)(F)F)c3)cc21)N1CCCCC1 [Example 206, 1-[2-Oxo-2-(1-piperidyl)ethyl]-6-[3-(trifluoromethyl)phenyl]-3H-imidazo[4,5-b]pyridin-2-one] | 0.163 |  | 
22 | COCCNC(=O)Cn1c(=O)[nH]c2ncc(-c3ccc(OC)cc3)cc21 [Example 444, N-(2-Methoxyethyl)-2-[6-(4-methoxyphenyl)-2-oxo-3H-imidazo[4,5-b]pyridin-1-yl]acetamide] |  |  | IC50 [3]: 0.747 µM
23 | CN(C)C(=O)Cn1c(=O)n(C)c2ncc(-c3ccsc3C(F)(F)F)cc21 [Example 96, N,N-Dimethyl-2-[3-methyl-2-oxo-6-[2-(trifluoromethyl)-3-thienyl]imidazo[4,5-b]pyridin-1-yl]acetamide] | 0.522 |  | 
24 | Cn1c(=O)n(Cc2cncc(F)c2)c2cc(-c3ccc(Cl)c(OC(F)F)c3)cnc21 [Example 544, 6-[4-Chloro-3-(difluoromethoxy)phenyl]-1-[(5-fluoro-3-pyridyl)methyl]-3-methyl-imidazo[4,5-b]pyridin-2-one] |  | 0.09 | 
25 | COc1ccc(-c2cnc3[nH]c(=O)n(Cc4cc(C)on4)c3c2)cc1C [Example 515, 6-(4-Methoxy-3-methyl-phenyl)-1-[(5-methylisoxazol-3-yl)methyl]-3H-imidazo[4,5-b]pyridin-2-one] |  |  | IC50 [3]: 0.156 µM
26 | O=c1[nH]c2ncc(-c3cccc(C(F)(F)F)c3)cc2n1CCNC1CCC1 [Example 150, 1-[2-(Cyclobutylamino)ethyl]-6-[3-(trifluoromethyl)phenyl]-3H-imidazo[4,5-b]pyridin-2-one] | 0.277 |  | 
27 | O=c1[nH]c2ncc(-c3cc(F)cc(F)c3)cc2n1CCNCCO [Example 173, 6-(3,5-Difluorophenyl)-1-[2-(2-hydroxyethylamino)ethyl]-3H-imidazo[4,5-b]pyridin-2-one] | 4.26 |  | 
28 | CCOc1ccccc1-c1cnc2[nH]c(=O)n(Cc3ccc(F)cc3)c2c1 [Example 606, 6-(2-Ethoxyphenyl)-1-[(4-fluorophenyl)methyl]-3H-imidazo[4,5-b]pyridin-2-one] |  | 2.18 | 
29 | Cc1cc(-c2cnc3c(c2)n(Cc2cncc(Cl)c2)c(=O)n3C)ccc1F [Example 367, 1-[(5-Chloro-3-pyridyl)methyl]-6-(4-fluoro-3-methyl-phenyl)-3-methyl-imidazo[4,5-b]pyridin-2-one] |  | 0.117 | 
30 | COc1cccc(Cn2c(=O)[nH]c3ncc(-c4ccc(F)cc4OC)cc32)c1 [Example 505, 6-(4-Fluoro-2-methoxy-phenyl)-1-[(3-methoxyphenyl)methyl]-3H-imidazo[4,5-b]pyridin-2-one] |  | 1.64 | 
31 | CN(CCF)C(=O)Cn1c(=O)n(C)c2ncc(-c3ccc(C(F)(F)F)s3)cc21 [Example 577, N-(2-Fluoroethyl)-N-methyl-2-[3-methyl-2-oxo-6-[5-(trifluoromethyl)-2-thienyl]imidazo[4,5-b]pyridin-1-yl]acetamide] |  | 0.064 | 
32 | Cn1c(=O)n(Cc2cncc(Cl)c2)c2cc(-c3cccc(C(F)(F)F)c3)cnc21 [Example 366, 1-[(5-Chloro-3-pyridyl)methyl]-3-methyl-6-[3-(trifluoromethyl)phenyl]imidazo[4,5-b]pyridin-2-one] |  | 0.433 | 
33 | Cn1c(=O)n(CC(=O)N2CC(F)C2)c2cc(-c3ccc(F)s3)cnc21 [Example 83, 1-[2-(3-Fluoroazetidin-1-yl)-2-oxo-ethyl]-6-(5-fluoro-2-thienyl)-3-methyl-imidazo[4,5-b]pyridin-2-one] | 0.033 |  | 
34 | CN(C)C(=O)Cn1c(=O)n(C)c2ncc(-c3csc(C(F)F)c3)cc21 [Example 97, 2-[6-[5-(Difluoromethyl)-3-thienyl]-3-methyl-2-oxo-imidazo[4,5-b]pyridin-1-yl]-N,N-dimethyl-acetamide] | 0.015 |  | 
35 | Cc1cc(-c2cnc3c(c2)n(Cc2cncc(Cl)c2)c(=O)n3C)sc1Cl [Example 372, 6-(5-Chloro-4-methyl-2-thienyl)-1-[(5-chloro-3-pyridyl)methyl]-3-methyl-imidazo[4,5-b]pyridin-2-one] |  | 6.64 | 
36 | O=c1[nH]c2ncc(-c3cccc(C(F)(F)F)c3)cc2n1Cc1ccncc1 [Example 229, 1-(4-Pyridylmethyl)-6-[3-(trifluoromethyl)phenyl]-3H-imidazo[4,5-b]pyridin-2-one] | 0.194 |  | 
37 | O=c1[nH]c2ncc(-c3ccccc3)cc2n1CCN1CCCC1 [Example 180, 6-Phenyl-1-(2-pyrrolidin-1-ylethyl)-3H-imidazo[4,5-b]pyridin-2-one] | 0.539 |  | 
38 | Cc1cc(-c2cnc3c(c2)n(CC(=O)N2CC(F)C2)c(=O)n3C)ccc1F [Example 401, 1-[2-(3-Fluoroazetidin-1-yl)-2-oxo-ethyl]-6-(4-fluoro-3-methyl-phenyl)-3-methyl-imidazo[4,5-b]pyridin-2-one] |  | 0.016 | 

— patent US11759455B2, “Substituted 1H-imidazo[4,5-b]pyridin-2(3H)-ones and their use as GLUN2B receptor modulators” (JANSSEN PHARMACEUTICA NV, priority 2016, dated 2023)
